Assay results from US12466810B2, “N-(5-(6-ethoxypyrazin-2-yl)pyridin-2-yl)-4-(2-(methylsulfonamido)pyrimidin-4-yl) tetrahydro-2H-pyran-4-carboxamide derivatives and related compounds as human CTPS1 inhibitors for the treatment of proliferative diseases” (Step Pharma S.A.S., priority 2019, dated 2025).

Columns and labels:
human CTPS1 = target: T1, human CTPS1 (Homo sapiens, UniProt P17812); assay: Human CTPS1 enzyme inhibition (ADP-Glo Max assay); assay type: biochemical; details: 25° C., read-out: Human CTPS1 Enzyme Inhibition IC50, grouped by potency range
T1 construct: FLAG (GG linker + DYKDDDDK); His8 (GG linker + HHHHHHHH); purchased Proteros biostructures GmbH
T1 sequence (P17812 1-591): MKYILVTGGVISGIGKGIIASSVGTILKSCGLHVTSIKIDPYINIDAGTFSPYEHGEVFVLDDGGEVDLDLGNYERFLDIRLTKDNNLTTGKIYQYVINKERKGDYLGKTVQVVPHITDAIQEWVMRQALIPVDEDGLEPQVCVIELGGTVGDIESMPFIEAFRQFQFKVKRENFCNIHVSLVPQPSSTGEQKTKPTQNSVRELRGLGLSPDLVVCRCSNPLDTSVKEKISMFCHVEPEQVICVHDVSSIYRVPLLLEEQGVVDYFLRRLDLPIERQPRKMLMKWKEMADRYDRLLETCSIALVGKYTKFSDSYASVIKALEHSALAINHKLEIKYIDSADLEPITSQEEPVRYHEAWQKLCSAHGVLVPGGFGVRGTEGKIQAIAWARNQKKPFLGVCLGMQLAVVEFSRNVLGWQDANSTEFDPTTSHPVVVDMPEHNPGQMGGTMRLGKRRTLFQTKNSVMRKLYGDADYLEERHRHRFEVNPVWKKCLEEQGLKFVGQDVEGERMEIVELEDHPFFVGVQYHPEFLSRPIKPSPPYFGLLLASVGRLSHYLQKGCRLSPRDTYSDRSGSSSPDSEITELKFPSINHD
Procedure: The enzyme inhibitory activities of compounds invented against the target of interest were determined using the ADP-Glo™ Max assay (Promega, UK). Assays for human CTPS1 were performed in 1× assay buffer containing 50 mM Tris, 10 mM MgCl2, 0.01% Tween-20, pH to 8.0 accordingly. Finally, immediately before use, L-cysteine was added to the 1× assay buffer to a final concentration of 2 mM. All reagents are from Sigma-Aldrich unless specified otherwise.
Human full length active C-terminal FLAG-Hiss-tag CTPS1 (UniProtKB—P17812, CTPS1[1-591]-[…] (CTPS1[1-591]-SEQ ID NO: 1)) was obtained from Proteros biostructures GmbH.
3× human CTPS1 protein was prepared in 1× assay buffer to the final working protein concentration required for the reaction. A 2 uL volume per well of 3× human CTPS1 protein was mixed with 2 uL per well of 3× test compound (compound prepared in 1× assay buffer to an appropriate final 3× compound concentration respective to the concentration response curve designed for the compounds under test) for 10 minutes at 25° C. The enzymatic reaction was then initiated by addition of a 2 uL per well volume of a pre-mixed substrate mix (UltraPure ATP from ADP-GIo™ Max kit (0.31 mM), GTP (0.034 mM), UTP (0.48 mM) and L-glutamine (0.186 mM)) and the mixture was incubated for an appropriate amount of time within the determined linear phase of the reaction at 25° C. under sealed plate conditions with constant agitation at 500 revolutions per minute (rpm). ADP-GIo™ Max reagent was added for 60 minutes (6 μL per well) and subsequently ADP-GIo™ Max development reagent was added for 60 minutes (12 uL per well) prior to signal detection in a microplate reader (EnVision® Multilabel Reader, Perkin Elmer). Following each reagent addition over the course of the assay, assay plates were pulse centrifuged for 30 seconds at 500 rpm.
In all cases, the enzyme converts ATP to ADP and the ADP-Glo™ Max reagent subsequently depletes any remaining endogenous ATP in the reaction system. The ADP-Glo™ Max detection reagent converts the ADP that has been enzymatically produced back into ATP and using ATP as a substrate together with luciferin for the enzyme luciferase, light is generated which produces a detectable luminescence. […] The percentage inhibition produced by each concentration of compound was calculated using the equation shown below: […]
(§1) Percentage inhibition was then plotted against compound concentration, and the 50% inhibitory concentration (IC50) was determined from the resultant concentration-response curve.

Human CTPS1 Versus CTPS2 = assay: RapidFire/MS-based enzyme selectivity assay, human CTPS1 versus CTPS2; assay type: biochemical; details: RapidFire/MS IC50s
Procedure: Human CTPS1 Versus CTPS2 Selectivity Assessment by RapidFire/MS Analysis.
The enzyme inhibitory activities against each target isoform of interest may be determined for the compounds of the invention using an optimised RapidFire high-throughput mass spectrometry (RF/MS) assay format. RF/MS assays for both human CTPS1 and CTPS2 may be performed in assay buffer consisting of 50 mM HEPES (Merck), 20 mM MgCl2, 5 mM KCl, 1 mM DTT, 0.01% Tween-20, pH to 8.0 accordingly. Human full-length active C-terminal FLAG-His-tag CTPS1 (UniProtKB—P17812, CTPS1[1-591]-[…] (CTPS1[1-591]-SEQ ID NO: 1)) may be obtained from Proteros biostructures GmbH. Human full length active C-terminal FLAG-His-Avi tagged CTPS2 (UniProtKB—Q9NRF8, CTPS2 [1-586]—[…] (CTPS2 [1-586]-SEQ ID NO: 2)) may be obtained from Harker Bio.
Human CTPS (1 or 2) protein may be prepared in 1× assay buffer to the final working protein concentration required for the reaction. A 2 uL volume per well of 2×CTPS (1 or 2) protein may be mixed with 40 nL of compound using acoustic (ECHO) delivery and incubated for 10 minutes at 25° C. Each isoform enzymatic reaction may be subsequently initiated by addition of 2 uL per well of a 2× substrate mix in assay buffer. For hCTPS1: ATP (0.3 mM), UTP (0.2 mM), GTP (0.07 mM) and L-glutamine (0.1 mM). For hCTPS2: ATP (0.1 mM), UTP (0.04 mM), GTP (0.03 mM) and L-glutamine (0.1 mM). Each mixture may be incubated for an appropriate amount of time per isoform within the determined linear phase of the reaction at 25° C. A 60 uL volume of stop solution (1% formic acid with 0.5 uM ^13C9-^15N3-CTP in H2O) may be added and the plate immediately heat-sealed and centrifuged for 10 minutes at 4,000 rpm. Following centrifugation, plates may be loaded onto the Agilent RapidFire microfluidic solid phase extraction system coupled to an API4000 triple quadrupole mass spectrometer (RF/MS) for analysis.
In all cases, the enzyme converts UTP to CTP. Highly specific and sensitive multiple reaction monitoring (MRM) MS methods may be optimised for the detection of the enzymatic reaction product, CTP, and the stable isotope labelled product standard ^13C-^15N-CTP. Readout for data analysis may be calculated as the ratio between the peak area of the product CTP and the internal standard […]. For data reporting, the following equation may be used: […]
For each screening plate, the means of the negative (DMSO) and positive control values were used for the calculation of the respective assay window (S/B) and Z′ values. The median of the respective control values was used for calculation of percent inhibition according to the following equation: […]
as §1
Fold selectivity between CTPS1 and CTPS2 was subsequently calculated according to the following equation: […]

CCOc1cncc(-c2ccc(NC(=O)C3(c4ccnc(NS(=O)(=O)C5CC5)n4)CCN(C(=O)NC(C)C)CC3)nc2)n1 [P233, 4-(2-(Cyclopropanesulfonamido)pyrimidin-4-yl)-N4-(5-(6-ethoxypyrazin-2-yl)pyridin-2-yl)-N1-isopropylpiperidine-1,4-dicarboxamide]
IC50 (human CTPS1): ≤ 100 nM
Fold selectivity between CTPS1 and CTPS2 (CTPS1) (Human CTPS1 Versus CTPS2): +++ (>60 fold (+++))

CCOc1cncc(-c2ccc(NC(=O)C3(c4ccnc(NS(=O)(=O)C5CC5)n4)CCC3)nc2)n1 [P241, 1-(2-(cyclopropanesulfonamido)pyrimidin-4-yl)-N-(5-(6-ethoxypyrazin-2-yl)pyridin-2-yl)cyclobutane-1-carboxamide]
IC50 (human CTPS1): ≤ 100 nM
Fold selectivity between CTPS1 and CTPS2 (CTPS1) (Human CTPS1 Versus CTPS2): +++ (>60 fold (+++))

O=C(Nc1ccc(-c2cncc(C3CC3)n2)cn1)C1(c2ccnc(NS(=O)(=O)C3CC3)n2)CCOCC1 [P252, 4-(2-(cyclopropanesulfonamido)pyrimidin-4-yl)-N-(5-(6-cyclopropylpyrazin-2-yl)pyridin-2-yl)tetrahydro-2H-pyran-4-carboxamide]
IC50 (human CTPS1): ≤ 100 nM
Fold selectivity between CTPS1 and CTPS2 (CTPS1) (Human CTPS1 Versus CTPS2): +++ (>60 fold (+++))

CCOc1cncc(-c2ccc(NC(=O)C3(c4ccnc(NS(=O)(=O)C5CCCC5)n4)CCOCC3)nc2)n1 [P245, 4-(2-(cyclopentanesulfonamido)pyrimidin-4-yl)-N-(5-(6-ethoxypyrazin-2-yl)pyridin-2-yl)tetrahydro-2H-pyran-4-carboxamide]
IC50 (human CTPS1): 100 to 1000 nM
Fold selectivity between CTPS1 and CTPS2 (CTPS1) (Human CTPS1 Versus CTPS2): +++ (>60 fold (+++))

CCOc1cncc(-c2ccc(NC(=O)C3(c4cncc(NS(=O)(=O)C5CC5)n4)CCCCC3)nc2)n1 [P239, 1-(6-(cyclopropanesulfonamido)pyrazin-2-yl)-N-(5-(6-ethoxypyrazin-2-yl)pyridin-2-yl)cyclohexane-1-carboxamide]
IC50 (human CTPS1): ≤ 100 nM
Fold selectivity between CTPS1 and CTPS2 (CTPS1) (Human CTPS1 Versus CTPS2): +++ (>60 fold (+++))

CCOc1cncc(-c2ccc(NC(=O)C3(c4ccnc(NS(=O)(=O)C5CC5)n4)CCCCC3)nc2)n1 [P237, 1-(2-(cyclopropanesulfonamido)pyrimidin-4-yl)-N-(5-(6-ethoxypyrazin-2-yl)pyridin-2-yl)cyclohexane-1-carboxamide]
IC50 (human CTPS1): ≤ 100 nM
Fold selectivity between CTPS1 and CTPS2 (CTPS1) (Human CTPS1 Versus CTPS2): +++ (>60 fold (+++))

CCOc1cncc(-c2ccc(NC(=O)C3(c4ccnc(NS(=O)(=O)CC5CC5)n4)CCOCC3)nc2)n1 [P263, 4-(2-(cyclopropylmethylsulfonamido)pyrimidin-4-yl)-N-(5-(6-ethoxypyrazin-2-yl)pyridin-2-yl)tetrahydro-2H-pyran-4-carboxamide]
IC50 (human CTPS1): 100 to 1000 nM

CCOc1cncc(-c2ccc(NC(=O)C3(c4ccnc(NS(C)(=O)=O)n4)CCCCC3)nc2)n1 [P238, N-(5-(6-ethoxypyrazin-2-yl)pyridin-2-yl)-1-(2-(methylsulfonamido)pyrimidin-4-yl)cyclohexane-1-carboxamide]
IC50 (human CTPS1): ≤ 100 nM
Fold selectivity between CTPS1 and CTPS2 (CTPS1) (Human CTPS1 Versus CTPS2): +++ (>60 fold (+++))

CCOc1cncc(-c2ccc(NC(=O)C3(c4nccc(NS(=O)(=O)C5CC5)n4)CCN(C)CC3)nc2)n1 [P319, 4-(4-(cyclopropanesulfonamido)pyrimidin-2-yl)-N-(5-(6-ethoxypyrazin-2-yl)pyridin-2-yl)-1-methylpiperidine-4-carboxamide]
IC50 (human CTPS1): ≤ 100 nM
Fold selectivity between CTPS1 and CTPS2 (CTPS1) (Human CTPS1 Versus CTPS2): +++ (>60 fold (+++))

O=C(Nc1ccc(-c2cncc(Cl)c2)cn1)C1(c2ccnc(NS(=O)(=O)C3CC3)n2)CCOCC1 [P253, N-(5′-chloro-[3,3′-bipyridin]-6-yl)-4-(2-(cyclopropanesulfonamido)pyrimidin-4-yl)tetrahydro-2H-pyran-4-carboxamide]
IC50 (human CTPS1): ≤ 100 nM
Fold selectivity between CTPS1 and CTPS2 (CTPS1) (Human CTPS1 Versus CTPS2): ++ (>30-60 fold (++))

CCOc1cncc(-c2ccc(NC(=O)C3(c4ccnc(NS(=O)(=O)C(C)(C)C)n4)CCOCC3)nc2)n1 [P246, 4-(2-((1,1-dimethylethyl)sulfonamido)pyrimidin-4-yl)-N-(5-(6-ethoxypyrazin-2-yl)pyridin-2-yl)tetrahydro-2H-pyran-4-carboxamide]
IC50 (human CTPS1): 100 to 1000 nM
Fold selectivity between CTPS1 and CTPS2 (CTPS1) (Human CTPS1 Versus CTPS2): +++ (>60 fold (+++))

CCOc1cncc(-c2ccc(NC(=O)C3(c4ccnc(NS(=O)(=O)CC(C)C)n4)CCOCC3)nc2)n1 [P250, N-(5-(6-ethoxypyrazin-2-yl)pyridin-2-yl)-4-(2-((2-methylpropyl)sulfonamido)pyrimidin-4-yl)tetrahydro-2H-pyran-4-carboxamide]
IC50 (human CTPS1): 100 to 1000 nM
Fold selectivity between CTPS1 and CTPS2 (CTPS1) (Human CTPS1 Versus CTPS2): +++ (>60 fold (+++))

CCOc1cncc(-c2ccc(NC(=O)C3(c4ccnc(NS(=O)(=O)C5CC5)n4)CCS(=O)(=O)CC3)nc2)n1 [P259, 4-(2-(cyclopropanesulfonamido)pyrimidin-4-yl)-N-(5-(6-ethoxypyrazin-2-yl)pyridin-2-yl)tetrahydro-2H-thiopyran-4-carboxamide 1,1-dioxide]
IC50 (human CTPS1): ≤ 100 nM

CCOc1cncc(-c2ccc(NC(=O)C3(c4ccnc(NS(=O)(=O)CC)n4)CCOCC3)nc2)n1 [P262, N-(5-(6-ethoxypyrazin-2-yl)pyridin-2-yl)-4-(2-(ethylsulfonamido)pyrimidin-4-yl)tetrahydro-2H-pyran-4-carboxamide]
IC50 (human CTPS1): ≤ 100 nM

CCOc1cncc(-c2ccc(C(=O)NC3(c4ccnc(NS(=O)(=O)C5CC5)n4)CC3)nc2)n1 [P257, N-(1-(2-(cyclopropanesulfonamido)pyrimidin-4-yl)cyclopropyl)-5-(6-ethoxypyrazin-2-yl)picolinamide]
IC50 (human CTPS1): 100 to 1000 nM
